Common to all, as to type: biochemical
Assay [1] deals with T1, human JAK3 (a.a. 781-1124) (Homo sapiens, UniProt P52333).
T1 construct: JAK3 (a.a. 781-1124); His tag (N); made in house; host or cells: insect cells (baculovirus)
As to the kind of experiment: In vitro JAK kinase assay (HTRF, phosphorylation of a biotinylated peptide), JAK3. A digest of the protocol:
(§1)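 Phosphorylation of a biotinylated peptide by the JAK kinase domain, detected by HTRF with Eu-Py20 and SA-APC. ATP was 90 μM for JAK1, 30 μM for JAK2 and 3 μM for JAK3. Reactions ran 1 h at room temperature and were stopped with EDTA, followed by 40 min antibody binding.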

Assay [2] concerns the target T2, human JAK1 (a.a. 837-1142) (Homo sapiens, UniProt P23458).
T2 construct: human JAK1 (a.a. 837-1142); His tag (N); made in house; host or cells: insect cells (baculovirus)
Description: In vitro JAK kinase assay (HTRF, phosphorylation of a biotinylated peptide), JAK1. Particulars: read-out: JAK1 IC50. A digest of the protocol: as §1

Assay [3] concerns the target TYK2 (Homo sapiens, UniProt P29597). Description: TYK2 kinase inhibition (Table A1).
For assay [4], the target named is T3, human JAK2 (a.a. 828-1132) (Homo sapiens, UniProt O60674).
T3 construct: JAK2 (a.a. 828-1132); His tag (N); made in house; host or cells: insect cells (baculovirus)
T3 sequence (O60674 828-1132): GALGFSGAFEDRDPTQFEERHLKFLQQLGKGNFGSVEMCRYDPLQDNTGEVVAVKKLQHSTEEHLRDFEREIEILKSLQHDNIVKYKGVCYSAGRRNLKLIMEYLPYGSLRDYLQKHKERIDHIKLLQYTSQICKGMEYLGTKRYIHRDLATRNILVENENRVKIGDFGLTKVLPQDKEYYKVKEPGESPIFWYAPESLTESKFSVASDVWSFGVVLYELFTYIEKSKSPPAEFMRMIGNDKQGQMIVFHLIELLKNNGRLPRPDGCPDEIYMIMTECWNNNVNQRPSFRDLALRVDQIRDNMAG
Description: In vitro JAK kinase assay (HTRF, phosphorylation of a biotinylated peptide), JAK2. A digest of the protocol:
as §1

The source of these data is US8871753B2, “Macrocyclic compounds and their use as kinase inhibitors” (Incyte Corporation, priority 2008, dated 2014).

Where a name gives a salt, the structure may show the parent alone. Read-outs that look alike come from different tables or passages of the source.

T2 sequence (P23458 849-1154): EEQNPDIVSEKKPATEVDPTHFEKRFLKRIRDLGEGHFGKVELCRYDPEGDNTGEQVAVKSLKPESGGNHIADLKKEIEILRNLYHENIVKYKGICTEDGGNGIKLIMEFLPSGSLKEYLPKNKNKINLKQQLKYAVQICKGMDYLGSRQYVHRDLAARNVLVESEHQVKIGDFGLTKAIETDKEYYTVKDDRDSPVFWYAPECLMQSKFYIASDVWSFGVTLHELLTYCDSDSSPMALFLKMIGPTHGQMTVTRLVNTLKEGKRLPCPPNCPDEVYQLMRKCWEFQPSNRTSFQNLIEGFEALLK
T1 sequence (P52333 781-1124): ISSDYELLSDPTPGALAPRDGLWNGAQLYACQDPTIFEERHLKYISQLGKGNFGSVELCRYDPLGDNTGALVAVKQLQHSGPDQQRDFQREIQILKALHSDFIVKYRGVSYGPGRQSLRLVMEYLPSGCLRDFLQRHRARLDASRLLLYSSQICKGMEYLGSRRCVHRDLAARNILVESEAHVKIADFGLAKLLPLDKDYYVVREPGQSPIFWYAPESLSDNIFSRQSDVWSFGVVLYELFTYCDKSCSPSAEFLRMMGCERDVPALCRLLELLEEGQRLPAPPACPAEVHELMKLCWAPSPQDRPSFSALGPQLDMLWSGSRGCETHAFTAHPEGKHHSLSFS
Chain of TYK2 (P29597 whole entry): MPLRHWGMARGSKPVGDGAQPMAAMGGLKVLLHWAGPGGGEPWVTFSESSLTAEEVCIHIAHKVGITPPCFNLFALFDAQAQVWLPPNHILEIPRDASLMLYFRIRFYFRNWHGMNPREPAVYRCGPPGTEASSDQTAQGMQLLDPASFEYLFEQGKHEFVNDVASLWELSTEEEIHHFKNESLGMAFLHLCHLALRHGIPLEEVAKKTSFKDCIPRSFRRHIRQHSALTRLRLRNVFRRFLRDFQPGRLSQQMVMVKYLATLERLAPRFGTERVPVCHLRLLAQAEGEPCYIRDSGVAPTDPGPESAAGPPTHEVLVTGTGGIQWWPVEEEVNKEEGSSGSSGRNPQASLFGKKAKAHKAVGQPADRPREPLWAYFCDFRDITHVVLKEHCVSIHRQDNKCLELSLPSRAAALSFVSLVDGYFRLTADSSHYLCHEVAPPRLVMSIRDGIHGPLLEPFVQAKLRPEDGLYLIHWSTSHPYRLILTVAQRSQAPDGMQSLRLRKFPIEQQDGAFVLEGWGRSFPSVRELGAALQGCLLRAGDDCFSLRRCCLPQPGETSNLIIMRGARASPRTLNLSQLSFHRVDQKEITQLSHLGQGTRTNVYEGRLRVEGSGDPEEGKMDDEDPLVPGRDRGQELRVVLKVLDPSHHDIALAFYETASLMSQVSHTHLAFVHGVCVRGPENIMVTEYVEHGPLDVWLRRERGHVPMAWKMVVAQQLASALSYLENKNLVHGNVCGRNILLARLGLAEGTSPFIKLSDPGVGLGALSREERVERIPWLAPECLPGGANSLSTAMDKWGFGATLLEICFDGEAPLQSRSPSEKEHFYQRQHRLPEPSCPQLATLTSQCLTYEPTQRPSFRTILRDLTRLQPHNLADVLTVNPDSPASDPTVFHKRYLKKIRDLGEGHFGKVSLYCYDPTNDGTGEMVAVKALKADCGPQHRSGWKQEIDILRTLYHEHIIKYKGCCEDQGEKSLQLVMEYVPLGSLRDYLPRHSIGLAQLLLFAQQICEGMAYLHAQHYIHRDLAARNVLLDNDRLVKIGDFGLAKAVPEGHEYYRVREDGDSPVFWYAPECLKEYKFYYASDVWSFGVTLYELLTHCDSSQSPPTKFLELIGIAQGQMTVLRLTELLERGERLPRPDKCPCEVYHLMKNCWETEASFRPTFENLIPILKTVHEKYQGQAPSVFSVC

In the case of `O=C(COc1ccc2cc1CCc1cncc(c1)Nc1ncc(Cl)c(n1)N2)N1CCN(C(=O)C2CCOC2)CC1` (centres unmarked) [Example D271, 6-Chloro-12-{2-oxo-2-[4-(tetrahydrofuran-3-ylcarbonyl)piperazin-1-yl]ethoxy}-2,4,8,18,22-pentaazatetracyclo[14.3.1.1(3,7).1(9,13)]docosa-1(20),3(22),4,6,9(21),10,12,16,18-nonaene bis(trifluoroacetate)], the IC50 in assay [1] (Table D1) is above 400 nM; in assay [2] (Table D1) it was 75 nM; in assay [3] (Table D1), above 400 nM; in assay [4] (Table D1) it was above 400 nM.
As to `O=C(C[C@@H]1CCCNC1)Nc1ccc2cc1CCc1cccc(c1)Nc1ncc(Cl)c(n1)N2` [Example D192, N-[6-Chloro-2,4,8,22-tetraazatetracyclo[14.3.1.1(3,7).1(9,13)]docosa-1(20),3(22),4,6,9(21),10,12,16,18-nonaen-12-yl]-2-[(3S)-piperidin-3-yl]acetamidebis(trifluoroacetate)], the concentration for half-maximal inhibition (IC50) amounted to 104 nM in assay [1] (Table D1), 4.7 nM in assay [2] (Table D1), 13 nM in assay [3] (Table D1) and 9.8 nM in assay [4] (Table D1).
For the compound `COc1cccnc1N1CCN(C(=O)COc2ccc3cc2CCc2cncc(c2)Nc2ncc(Cl)c(n2)N3)CC1` [Example D249, 6-Chloro-12-{2-[4-(3-methoxypyridin-2-yl)piperazin-1-yl]-2-oxoethoxy}-2,4,8,18,22-pentaazatetracyclo[14.3.1.1(3,7).1(9,13)]docosa-1(20),3(22),4,6,9(21),10,12,16,18-nonaene tris(trifluoroacetate)], the 50% inhibitory concentration (IC50) in assay [1] (Table D1) was above 400 nM; in assay [2] (Table D1) it was 71 nM; in assay [3] (Table D1) it was above 400 nM; in assay [4] (Table D1) it was above 400 nM.
In the case of `Cn1cc(CC(=O)Nc2ccc3cc2CCc2cccc(c2)Nc2ncc(Cl)c(n2)N3)c2ccccc21` [Example C37, N-[6-Chloro-2,4,8,22-tetraazatetracyclo[14.3.1.1(3,7).1(9,13)]docosa-1(20),3(22),4,6,9(21),10,12,16,18-nonaen-12-yl]-2-(1-methyl-1H-indol-3-yl)acetamide trifluoroacetate], the 50% inhibitory concentration (IC50) was determined as 2620 nM in assay [1], 496 nM in assay [2], 581 nM in assay [3] and 276 nM in assay [4].
Turning to `O=C(Nc1cccc(F)c1)N1CCC(CCOc2ccc3cc2CCc2cncc(c2)Nc2ncc(Cl)c(n2)N3)CC1` [Example D169, 4-(2-{[6-Chloro-2,4,8,18,22-pentaazatetracyclo[14.3.1.1(3,7).1(9,13)]docosa-1(20),3(22),4,6,9(21),10,12,16,18-nonaen-12-yl]oxy}ethyl)-N-(3-fluorophenyl)piperidine-1-carboxamide bis(trifluoroacetate)], the IC50 in assay [1] (Table D1) was above 400 nM; in assay [2] (Table D1), 39 nM; in assay [3] (Table D1), above 400 nM; in assay [4] (Table D1), 235 nM.
On to `C[N+]1(C)CCN(c2ccc3cc2CCc2cccc(c2)Nc2ncc(Cl)c(n2)N3)CC1` [Example D86, 4-[6-Chloro-2,4,8,22-tetraazatetracyclo[14.3.1.1(3,7).1(9,13)]docosa-1(20),3(22),4,6,9(21),10,12,16,18-nonaen-12-yl]-1,1-dimethylpiperazin-1-ium bis(trifluoroacetate)], for which the half-maximal inhibitory concentration (IC50) in assay [1] (Table D1) stood at 169 nM; in assay [2] (Table D1), 295 nM; in assay [3] (Table D1), 268 nM; in assay [4] (Table D1), 87 nM.
For `O=C(CC1CN(c2ccccn2)C1)Nc1ccc2cc1CCc1cncc(c1)Nc1ncc(Cl)c(n1)N2` [Example D153, N-[6-Chloro-2,4,8,18,22-pentaazatetracyclo[14.3.1.1(3,7).1(9,13)]docosa-1(20),3(22),4,6,9(21),10,12,16,18-nonaen-12-yl]-2-(1-pyridin-2-ylazetidin-3-yl)acetamide tris(trifluoroacetate)], the half-inhibitory concentration (IC50) is above 400 nM in assay [1] (Table D1), 30 nM in assay [2] (Table D1), above 400 nM in assay [3] (Table D1) and 150 nM in assay [4] (Table D1).
Turning to `N#Cc1ccccc1S(=O)(=O)N1CCN(C(=O)COc2ccc3cc2CCc2cncc(c2)Nc2ncc(Cl)c(n2)N3)CC1` [Example D254, 2-{[4-({[6-Chloro-2,4,8,18,22-pentaazatetracyclo[14.3.1.1(3,7).1(9,13)]docosa-1(20),3(22),4,6,9(21),10,12,16,18-nonaen-12-yl]oxy}acetyl)piperazin-1-yl]sulfonyl}benzonitrile bis(trifluoroacetate)], the concentration for half-maximal inhibition (IC50) was above 400 nM in assay [1] (Table D1), 8.1 nM in assay [2] (Table D1), 356 nM in assay [3] (Table D1) and 49 nM in assay [4] (Table D1).
Consider `N#Cc1ccc(NC(=O)N2CCC(CCOc3ccc4cc3CCc3cncc(c3)Nc3ncc(Cl)c(n3)N4)CC2)cc1` [Example D174, 4-(2-{[6-Chloro-2,4,8,18,22-pentaazatetracyclo[14.3.1.1(3,7).1(9,13)]docosa-1(20),3(22),4,6,9(21),10,12,16,18-nonaen-12-yl]oxy}ethyl)-N-(4-cyanophenyl)piperidine-1-carboxamide bis(trifluoroacetate)], for which the 50% inhibitory concentration (IC50) in assay [1] (Table D1) is above 400 nM; in assay [2] (Table D1), 160 nM; in assay [3] (Table D1), above 400 nM; in assay [4] (Table D1), above 400 nM.
Turning to `O=C(Cc1cccnc1)Nc1ccc2cc1CCc1cccc(c1)Nc1ncc(Cl)c(n1)N2` [Example C39, N-[6-Chloro-2,4,8,22-tetraazatetracyclo[14.3.1.1(3,7).1(9,13)]docosa-1(20),3(22),4,6,9(21),10,12,16,18-nonaen-12-yl]-2-pyridin-3-ylacetamide bis(trifluoroacetate)], the half-inhibitory concentration (IC50) in assay [1] was determined as 1220 nM; in assay [2], 54 nM; in assay [3] it was 195 nM; in assay [4], 29 nM.
For `O=C(Cc1ccncc1)Nc1ccc2cc1CCc1cccc(c1)Nc1ncc(Cl)c(n1)N2` [Example C40, N-[6-Chloro-2,4,8,22-tetraazatetracyclo[14.3.1.1(3,7).1(9,13)]docosa-1(20),3(22),4,6,9(21),10,12,16,18-nonaen-12-yl]-2-pyridin-4-ylacetamide bis(trifluoroacetate)] the same measures were 804 nM, 62 nM, 291 nM and 56 nM.
`O=C(C[C@H]1CCCNC1)Nc1ccc2cc1CCc1cncc(c1)Nc1ncc(Cl)c(n1)N2` [Example D195, N-[6-Chloro-2,4,8,18,22-pentaazatetracyclo[14.3.1.1(3,7).1(9,13)]docosa-1(20),3(22),4,6,9(21),10,12,16,18-nonaen-12-yl]-2-[(3R)-piperidin-3-yl]acetamidetris(trifluoroacetate)]: the IC50 in assay [1] (Table D1) is 355 nM; in assay [2] (Table D1), 18 nM; in assay [3] (Table D1), 31 nM; in assay [4] (Table D1) it was 54 nM.
For `O=C(Cc1ccccc1)N1CCC(Nc2ccc3cc2CCc2cncc(c2)Nc2ncc(Cl)c(n2)N3)CC1` [Example D159, 6-Chloro-N-[1-(phenylacetyl)piperidin-4-yl]-2,4,8,18,22-pentaazatetracyclo[14.3.1.1(3,7).1(9,13)]docosa-1(20),3(22),4,6,9(21),10,12,16,18-nonaen-12-amine tris(trifluoroacetate)], the IC50 in assay [1] (Table D1) is above 400 nM; in assay [2] (Table D1), 313 nM; in assay [3] (Table D1), above 400 nM; in assay [4] (Table D1), above 400 nM.
In the case of `O=C(Nc1ccsc1)N1CCC(CCOc2ccc3cc2CCc2cncc(c2)Nc2ncc(Cl)c(n2)N3)CC1` [Example D166, 4-(2-{[6-Chloro-2,4,8,18,22-pentaazatetracyclo[14.3.1.1(3,7).1(9,13)]docosa-1(20),3(22),4,6,9(21),10,12,16,18-nonaen-12-yl]oxy}ethyl)-N-3-thienylpiperidine-1-carboxamide bis(trifluoroacetate)], the IC50 in assay [1] (Table D1) is above 400 nM; in assay [2] (Table D1) it was 14 nM; in assay [3] (Table D1), above 400 nM; in assay [4] (Table D1) it was 58 nM.
Regarding `O=C(Cn1c(=O)oc2c3cc(cc21)Nc1nc(ncc1Cl)Nc1cccc(c1)CC3)N1CCN(c2ccccc2)CC1` [Example D188, 4-Chloro-20-[2-oxo-2-(4-phenylpiperazin-1-yl)ethyl]-18-oxa-2,6,8,20,25-pentaazapentacyclo[14.6.1.1(3,7).1(9,13).0(17,21)]pentacosa-1(23),3(25),4,6,9(24),10,12,16,21-nonaen-19-one bis(trifluoroacetate)], the IC50 was 79 nM in assay [1] (Table D1), 32 nM in assay [2] (Table D1), above 1000 nM in assay [3] (Table D1) and 32 nM in assay [4] (Table D1).
Turning to `O=C(CC1CN(C(=O)c2ccno2)C1)Nc1ccc2cc1CCc1cncc(c1)Nc1ncc(Cl)c(n1)N2` [Example D144, N-[6-Chloro-2,4,8,18,22-pentaazatetracyclo[14.3.1.1(3,7).1(9,13)]docosa-1(20),3(22),4,6,9(21),10,12,16,18-nonaen-12-yl]-2-[1-(isoxazol-5-ylcarbonyl)azetidin-3-yl]acetamide bis(trifluoroacetate)], the half-maximal inhibitory concentration (IC50) in assay [1] (Table D1) is above 1000 nM; in assay [2] (Table D1) it was 32 nM; in assay [3] (Table D1) it was 260 nM; in assay [4] (Table D1), 172 nM.
The corresponding values for `O=C(C[C@H]1CCN(c2nc3ccccc3s2)C1)Nc1ccc2cc1CCc1cncc(c1)Nc1ncc(Cl)c(n1)N2` [Example D136, 2-[(3R)-1-(1,3-Benzothiazol-2-yl)pyrrolidin-3-yl]-N-[6-chloro-2,4,8,18,22-pentaazatetracyclo[14.3.1.1(3,7).1(9,13)]docosa-1(20),3(22),4,6,9(21),10,12,16,18-nonaen-12-yl]acetamide tris(trifluoroacetate)] are above 1000 nM, 6.6 nM, 106 nM and 53 nM.
